Source: patent publication US6846803B1, “Antagonists specific for the corticotropin-releasing factor receptor type 2 (CRFR2)” (priority 1998, dated 2005)
Where two headings read alike, the source gives them in different places. Residues, ends and D or L forms follow the SMILES beside them. *: point of attachment. X1 = O=C(c1ccc(C2(C(F)(F)F)N=N2)cc1)*

Legend:
[1] = target: T1, mCRFR2β (Mus musculus, UniProt Q60748); experiment: cAMP stimulation / inhibition of Svg-stimulated cAMP production in HEK-mCRFR2β cells; type: cell-based; set-up: Emax: dose or concentration left out as unconfirmed; details: for HEK-mCRFR2β cells rel. pot. (relative potency): Table 4, Svg alone = 1.00
T1 construct: expressed in transfected cells; host or cells: HEK 293 cells, stably transfected (HEK-mCRFR2β); membrane homogenates
Procedure: (§1) HEK-rCRFR1 cells or HEK-mCRFR2β cells were incubated with different CRF agonists in the presence or absence of 1 μM or 10 nM antagonist, or CRF antagonist (c=1 μM) alone. After removal of the medium, cells were lyzed with aqueous 6% trichloroacetic acid (5 min, 100° C.) (Rühmann, A., A. K. E. Köpke, F. M. Dautzenberg, and J. Spiess, Proc. Natl. Acad. Sci. USA 93: 10609-10613, 1996). The cell lysates were stored at −70° C. until assayed with a RIA kit (Amersham, Little Chalfont). […] Statistical significance was determined across groups with ANOVA, and significant differences between groups were determined by post hoc comparison using the Dunn test.
(§2) Intrinsic activities were measured at peptide concentrations generating maximal formation of cAMP in HEK-rCRFR1 or HEK-mCRFR2β cells.
Target sequence in this assay (Q60748 1-431 isoform Q60748-2): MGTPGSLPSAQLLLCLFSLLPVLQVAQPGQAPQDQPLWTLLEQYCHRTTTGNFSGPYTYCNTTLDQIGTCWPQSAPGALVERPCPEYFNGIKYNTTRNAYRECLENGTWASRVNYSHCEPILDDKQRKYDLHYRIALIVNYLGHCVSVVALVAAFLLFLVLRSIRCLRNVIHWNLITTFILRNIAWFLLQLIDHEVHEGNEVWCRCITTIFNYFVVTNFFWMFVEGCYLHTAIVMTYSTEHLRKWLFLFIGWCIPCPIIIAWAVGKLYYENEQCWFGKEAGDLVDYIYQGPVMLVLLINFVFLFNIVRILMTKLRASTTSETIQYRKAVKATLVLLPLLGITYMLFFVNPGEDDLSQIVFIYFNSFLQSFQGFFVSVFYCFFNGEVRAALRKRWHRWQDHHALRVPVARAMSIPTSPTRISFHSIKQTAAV

[2] = target: T1, mCRFR2β; experiment: Displacement of [^125I-Tyr^0]Svg from membranes of HEK-mCRFR2β cells; type: binding; details: for Selectivity: Kd(rCRFR1)(peptide)/Kd(rCRFR1)(astressin) × Kd(mCRFR2β)(astressin)/Kd(mCRFR2β)(peptide)
Procedure: Binding assays were performed in 96-well MultiScreen plates (Millipore, Eschborn, Germany) with GF/B filters (pore size 1.0 μm). […] After incubation (60 min, 23° C.), membrane suspension was aspirated through the plate, followed by two washes with assay buffer (0.2 ml, 23°). Radioactivity of the punched filters was measured with a 1470 WIZARD automatic gamma counter (Berthold, Hannover). […] Statistical analysis was performed with ANOVA, and significant differences between groups were determined by post hoc comparison using the Dunn test.
Membrane homogenates of human embryonic kidney (HEK) 293 cells stably transfected with cDNA coding for rat CRF receptor, type 1 (rCRFR1) or mouse CRF receptor, type 2β (mCRFR2β) were prepared according to standard protocols (see, e.g., Sambrook et al., Molecular Cloning: A Laboratory Manual, 2nd. Edition, Cold Spring Habor Laboratory Press, Cold Spring Habor, N.Y., 1989; Ausubel et al., Current Protocols in Molecular Biology, Green Publishing Associates and Wiley Interscience, NY, 1989).

[3] = target: T2, rCRFR1 (Rattus norvegicus, UniProt P35353); experiment: cAMP stimulation / inhibition of oCRF-stimulated cAMP production in HEK-rCRFR1 cells; type: cell-based
T2 construct: expressed in transfected cells; host or cells: HEK 293 cells, stably transfected (HEK-rCRFR1)
T2 sequence (P35353 24-415): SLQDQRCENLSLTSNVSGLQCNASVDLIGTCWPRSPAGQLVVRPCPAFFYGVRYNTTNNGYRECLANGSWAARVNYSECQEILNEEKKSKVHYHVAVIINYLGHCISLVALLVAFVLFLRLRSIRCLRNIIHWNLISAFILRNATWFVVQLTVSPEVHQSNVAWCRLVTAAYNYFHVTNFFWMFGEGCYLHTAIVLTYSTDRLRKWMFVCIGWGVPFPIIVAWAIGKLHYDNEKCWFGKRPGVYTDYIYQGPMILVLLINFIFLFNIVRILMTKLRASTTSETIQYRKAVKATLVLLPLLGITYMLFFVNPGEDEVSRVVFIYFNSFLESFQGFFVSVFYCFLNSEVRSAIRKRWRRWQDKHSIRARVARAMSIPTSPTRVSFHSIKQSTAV
Procedure: as §1, §2

[4] = 10 nM antagonist, cAMP production stimulated by 1 nM Svg
[5] = read-out: HEK-mCRFR2β cells rel. IA (relative intrinsic activity)
[6] = read-out: mCRFR2β % IA (intrinsic activity)
[7] = read-out: HEK-rCRFR1 cells rel. IA (relative intrinsic activity)

For CC[C@H](C)[C@H](NC(=O)[C@@H](NC(=O)[C@H](CC(=O)O)NC(=O)[C@H](CC(C)C)NC(=O)[C@H](CC(C)C)NC(=O)[C@H](CC(C)C)NC(=O)[C@H](CCCNC(=N)N)NC(=O)[C@H](CC(N)=O)NC(=O)[C@H](CC(N)=O)NC(=O)[C@H](C)NC(=O)[C@H](C)NC(=O)[C@H](CCC(N)=O)NC(=O)[C@H](CCC(N)=O)NC(=O)[C@H](CCCCN)NC(=O)[C@H](CCC(=O)O)NC(=O)[C@H](CCCCN)NC(=O)[C@H](CCC(=O)O)NC(=O)[C@H](CCC(N)=O)NC(=O)[C@H](CCCCN)NC(=O)[C@H](CCC(=O)O)NC(=O)[C@@H](NC(=O)[C@H](CCC(=O)O)NC(=O)[C@@H](NC(=O)[C@H](CCSC)NC(=O)[C@H](CCCCN)NC(=O)[C@H](CCCNC(=N)N)NC(=O)[C@H](CC(C)C)NC(=O)[C@H](CC(C)C)NC(=O)[C@H](CCC(=O)O)NC(=O)[C@H](CC(C)C)NC(=O)[C@H](CO)NC(=O)[C@H](CC(C)C)NC(=O)[C@H](CC(=O)O)NC(=O)[C@@H](NC(=O)[C@H](CO)NC(=O)[C@@H](NC(=O)[C@@H]1CCCN1C(=O)[C@@H]1CCCN1C(=O)CNC(=O)[C@@H]1CCC(=O)N1)[C@@H](C)CC)[C@@H](C)CC)[C@@H](C)CC)[C@@H](C)CC)[C@@H](C)O)C(N)=O [compound 2, Svg, reference compound], the “mCRFR2β relative in vitro potency” value ([1]; Table 2, 10 nM antagonist, cAMP production stimulated by 1 nM Svg, Svg alone = 1.00 (lower = stronger inhibition)) was 1.00, the “HEK-mCRFR2β cells rel. pot. (relative potency)” value [1, 4] was 1.00 and the Emax [1, 5] was 100%. The Emax [1, 6] was 100%, the Selectivity ([2]; Table 1) was 0.109 and the Selectivity ([2]; Table 3) was 0.109.
CC[C@H](C)[C@H](NC(=O)[C@@H](NC(=O)[C@H](CC(=O)O)NC(=O)[C@H](CC(C)C)NC(=O)[C@H](CC(C)C)NC(=O)[C@H](CC(C)C)NC(=O)[C@H](CCCNC(=N)N)NC(=O)[C@H](CC(N)=O)NC(=O)[C@H](CC(N)=O)NC(=O)[C@H](C)NC(=O)[C@H](C)NC(=O)[C@H](CCC(N)=O)NC(=O)[C@H](CCC(N)=O)NC(=O)[C@H](CCCCN)NC(=O)[C@H](CCC(=O)O)NC(=O)[C@H](CCCCN)NC(=O)[C@H](CCC(=O)O)NC(=O)[C@H](CCC(N)=O)NC(=O)[C@H](CCCCN)NC(=O)[C@H](CCC(=O)O)NC(=O)[C@@H](NC(=O)[C@H](CCC(=O)O)NC(=O)[C@@H](NC(=O)[C@H](CCSC)NC(=O)[C@H](CCCCN)NC(=O)[C@H](CCCNC(=N)N)NC(=O)[C@H](CC(C)C)NC(=O)[C@H](CC(C)C)NC(=O)[C@H](Cc1c[nH]cn1)NC(=O)[C@H](N)Cc1ccccc1)[C@@H](C)CC)[C@@H](C)CC)[C@@H](C)O)C(N)=O [compound 11, [DPhe^11, His^12]Svg(11-40)] gave an Emax [3, 7] of 4 ± 1%, an Emax ([3]; read-out: rCRFR1 % IA (intrinsic activity)) of 4 ± 1% and an Emax [1, 5] of 0.4 ± 0.1%. For the same molecule, the Emax [1, 6] was 0.4 ± 0.1% and the Kd [2] was 1.4 ± 0.4 nM.
For CC[C@H](C)[C@H](NC(=O)[C@@H](NC(=O)[C@H](CC(=O)O)NC(=O)[C@H](CC(C)C)NC(=O)[C@H](CC(C)C)NC(=O)[C@H](CC(C)C)NC(=O)[C@H](CCCNC(=N)N)NC(=O)[C@H](CC(N)=O)NC(=O)[C@H](CC(N)=O)NC(=O)[C@H](C)NC(=O)[C@H](C)NC(=O)[C@H](CCC(N)=O)NC(=O)[C@H](CCC(N)=O)NC(=O)[C@H](CCCCN)NC(=O)[C@H](CCC(=O)O)NC(=O)[C@H](CCCCN)NC(=O)[C@H](CCC(=O)O)NC(=O)[C@H](CCC(N)=O)NC(=O)[C@H](CCCCN)NC(=O)[C@H](CCC(=O)O)NC(=O)[C@@H](NC(=O)[C@H](CCC(=O)O)NC(=O)[C@@H](NC(=O)[C@H](CCSC)NC(=O)[C@H](CCCCN)NC(=O)[C@H](CCCNC(=N)N)NC(=O)[C@H](CC(C)C)NC(=O)[C@H](CC(C)C)NC(=O)[C@H](Cc1c[nH]cn1)NC(=O)c1ccc(C2(C(F)(F)F)N=N2)cc1)[C@@H](C)CC)[C@@H](C)CC)[C@@H](C)O)C(N)=O [compound 17, ATB-[His^12]Svg(12-40)] (X1-HLLRKMIEIEKQEKEKQQAANNRLLLDTI-NH2), the “HEK-rCRFR1 cells rel. pot. (relative potency)” value ([3]; Table 4, 1 μM antagonist, cAMP production stimulated by 1 nM oCRF, oCRF alone = 1.00) was 0.54 ± 0.06, the Emax [3, 7] was 15 ± 1% and the “HEK-mCRFR2β cells rel. pot. (relative potency)” value [1, 4] was 0.48 ± 0.04. For the same molecule, the Emax [1, 5] was 0.7 ± 0.2%, the Kd [2] was 3.1 ± 0.2 nM and the Selectivity ([2]; Table 3) was 32.26.
